# Experimental data reported in patent US10179790B2 (THOMAS HELLEDAYS STIFTELSE FOR MEDICINSK FORSKNING, priority 2014, dated 2019).
# Columns and labels:
# MTH1 = MTH1 (Homo sapiens, UniProt P36639); assay: MTH1 enzymatic assay and IC50 value determination (malachite green, 96- and 384-well format); format: biochemical; conditions: hydrolysis of dGTP (100 μM), MTH1 6 nM, pyrophosphatase-coupled malachite green, 15 minutes at 22° C.
# Protocol: MTH1 Enzymatic Assay and IC50 Value Determination
# MTH1 catalyzes the hydrolysis of dGTP to dGMP and PPi. By coupling the reaction to pyrophosphatase added in excess PPi is converted to Pi that can be detected by using the malachite green assay reagent. Two different formats were used for IC50 determinations in the enzymatic assay, 96- and 384-well format. 96-Well Method:
# Briefly, the compound to be analyzed is diluted in DMSO in a 1:3 dilution series generating 12 different compound concentrations giving a final DMSO concentration of 1% in the assay well. MTH1 diluted in assay buffer (100 mM Tris-acetate, 40 mM NaCl, 10 mM magnesium acetate, 1 mM DTT and 0.005% Tween 20) fortified with E. coli pyrophosphatase (0.2 U/ml) is added to a final concentration of 6 nM. dGTP diluted in assay buffer is added to a final concentration of 100 μM. The reaction mixture is incubated for 15 minutes at 22° C. To 100 μl reaction mixture, 25 μl Malachite green assay regent (0.095% Malachite green in 17% H2SO4, 1.5% Ammonium molybdate, 0.17% Tween 20) is added, followed by incubation with shaking for 15 minutes at 22° C. The absorbance of the assay plate is read at 630 nm using a Hidex Sense Multilabel plate reader. The IC50 value is determined by fitting a dose response curve to the data points using nonlinear regression analysis and the equation Y=Bottom+(Top−Bottom)/(1+10^((Log IC50−X)*HillSlope)), where Y is the read absorbance at 630 nm and X is log [compound].
# The compounds to be tested are nano-dispensed, in 11 concentrations, directly in assay plates, with a final DMSO concentration <1%. The protocol and the reaction mixture are the same as for the 96-well assay, with a total reaction volume of 50 μl/well to which 10 μl of Malachite green reagent is added. All additions to the assay plates are made with multidrop.
# cancer cell = assay: Cell viability assay (resazurin); format: cell-based; conditions: 72 h; 3 days with compound, resazurin fluorescence; cell line not named
# Protocol: The utility of the compounds of the present invention can be illustrated, for example, by their activity in vitro in the cancer cell clonogenic and/or viability assay described below. The link between activity in tumor cell clonogenic assay and anti-tumor activity in the clinical setting has been well established in the art (e.g. see ref Silverstini et al Stem Cells 1993, 11(6), 258-35).
# Cells are seeded into 96 well plates (1000-3000 cells/well) in DMEM GlutaMAX™ or other suitable media dependent on cell line and incubated overnight in 5% CO2, 37° C. Thereafter cells are treated with compound or vehicle and left in incubator for 3 days until staining with resazurin. Cells are incubated in resazurin (diluted in suitable media) at 37° C. for 2 hours before measuring the fluorescence (Ex544/Em590).
# The compounds to be tested are nano-dispensed in 11 concentrations, directly in 384-well cell plates, with a final DMSO concentration <1%. Cells are seeded in cell plates, pre-dispensed with compounds, 50 μl/well (600-1200 cells/well). After 3 days culture in 5% CO2, 37° C., resazurin diluted in PBS is added, 10 μl/well, and cells are incubated 3 hours before measuring fluorescence (Ex544/Em590).
IC50 (MTH1) [nM],IC50 (cancer cell) [nM],SMILES
< 200,< 500,"Cc1c(Cl)cccc1-c1cc(NCCc2ccc(S(C)(=O)=O)cc2)nc(N)n1 [Example 1, 6-(3-chloro-2-methylphenyl)-4-N-[2-(4-methanesulfonylphenyl)ethyl]pyrimidine-2,4-diamine]"
< 200,< 500,"Cc1cccc(-c2cc(NCCCNc3ccc(S(N)(=O)=O)cn3)nc(N)n2)c1C [Example 2, 6-[(3-{[2-amino-6-(2,3-dimethylphenyl)pyrimidin-4-yl]amino}propyl)amino]pyridine-3-sulfonamide]"
< 200,< 500,"CNS(=O)(=O)c1ccc(NCCNc2cc(-c3cccc(C)c3C)nc(N)n2)nc1 [Example 3, 6-[(2-{[2-amino-6-(2,3-dimethylphenyl)pyrimidin-4-yl]amino}ethyl)amino]-N-methylpyridine-3-sulfonamide]"
< 200,< 500,"Cc1cccc(-c2cc(NCCNc3ccc(S(C)(=O)=O)nc3)nc(N)n2)c1C [Example 13, 6-(2,3-dimethylphenyl)-4-N-{2-[(6-methanesulfonylpyridin-3-yl)amino]ethyl}pyrimidine-2,4-diamine]"
< 200,–,"Cc1c(Cl)cccc1-c1cc(NCCc2ccc(C(N)=O)cc2F)nc(N)n1 [Example 162, 4-[2-[[2-amino-6-(3-chloro-2-methyl-phenyl)pyrimidin-4-yl]amino]ethyl]-3-fluoro-benzamide]"
< 200,–,"Cc1c(Cl)cccc1-c1cc(NCCSCc2ccc(CN(C)C)o2)nc(N)n1 [Example 175, 6-(3-chloro-2-methyl-phenyl)-N4-[2-[[5-[(dimethylamino)methyl]-2-furyl]methylsulfanyl]ethyl]pyrimidine-2,4-diamine]"
< 200,–,"Cc1c(Cl)cccc1-c1cc(NCCc2cccc(NC(=N)N)c2)nc(N)n1 [Example 179, 1-[3-[2-[[2-amino-6-(3-chloro-2-methyl-phenyl)pyrimidin-4-yl]amino]ethyl]phenyl]guanidine]"
< 200,–,Cc1c(Cl)cccc1-c1cc(NCC#CCSc2cccc(C(=O)O)c2)nc(N)n1 [Example 193]
< 200,–,"Cc1c(-c2cc(NCCc3ccc(S(N)(=O)=O)cc3)nc(N)n2)cccc1C(F)(F)F [Example 197, 4-[2-({2-amino-6-[2-methyl-3-(trifluoromethyl)phenyl]pyrimidin-4-yl}amino)ethyl]benzene-1-sulfonamide]"
< 200,–,"Cc1c(Cl)cccc1-c1cc(NCCOc2ccc(C(F)(F)F)cn2)nc(N)n1 [Example 199, 6-(3-chloro-2-methylphenyl)-N4-(2-{[5-(trifluoromethyl)pyridin-2-yl]oxy}ethyl)pyrimidine-2,4-diamine]"
< 200,–,"Cc1c(Cl)cccc1-c1cc(NCCOc2ccc(-c3nn[nH]n3)cc2)nc(N)n1 [Example 202, 6-(3-chloro-2-methylphenyl)-N4-{2-[4-(2H-1,2,3,4-tetrazol-5-yl)phenoxy]ethyl}pyrimidine-2,4-diamine]"
< 200,–,"Cc1c(Cl)cccc1-c1cc(NCC(O)c2ccc(S(C)(=O)=O)cc2)nc(N)n1 (stereo not shown) [Example 215, 2-(2-amino-6-(3-chloro-2-methylphenyl)pyrimidin-4-ylamino)-1-(4-(methylsulfonyl)phenyl)ethanol]"
< 200,–,"Cc1c(Cl)cccc1-c1cc(NCC(O)c2ccc(S(N)(=O)=O)cc2)nc(N)n1 (stereo not shown) [Example 216, 4-(2-(2-Amino-6-(3-chloro-2-methylphenyl)pyrimidin-4-ylamino)-1-hydroxyethyl)benzenesulfonamide]"
< 200,–,"CS(=O)(=O)c1ccc(CCNc2cc(-c3cccc(Cl)c3CO)nc(N)n2)cc1 [Example 217, (2-(2-Amino-6-(4-(methylsulfonyl)phenethylamino)pyrimidin-4-yl)-6-chlorophenyl)methanol]"
< 200,–,"Nc1nc(NCCc2ccc(S(N)(=O)=O)cc2)cc(-c2cccc(Cl)c2CO)n1 [Example 218, 4-(2-(2-Amino-6-(3-chloro-2-(hydroxymethyl)phenyl)pyrimidin-4-ylamino)ethyl)benzenesulfonamide]"
